{"source": "patent US10336788B2", "about": "“Inhibition of cardiac fibrosis in myocardial infarction” (Moerae Matrix, Inc., priority 2014, dated 2019)", "key": {"C57BL/6 mice": {"tested_on": "C57BL/6 mice", "test": "Histological analysis of fibrosis (Masson's trichrome, Aperio) of hearts 14 days post-AMI", "format": "in vivo, mouse", "experimental": "Mice were euthanized by isoflurane and cervical dislocation at day 14, fixed in fresh 4% paraformaldehyde for 24 hours, paraffin embedded, processed, and stained with standard hematoxylin and eosin (H&E) and Masson's trichrome (MT). Starting at the ligation with fully faced tissue, 14-15 levels were cut on each block at 50 μm (one slide for H&E, one for MT, and 3 unstained; 50 μm skipped and then repeated). […] The area of fibrosis was analyzed in 3-4 blindly chosen hearts, each heart at 14-15 levels (point of ligation to apex), 3 sections at each level. Analysis of collagen was performed blinded to treatment on these 42-45 sections per heart. Slides were scanned using an Aperio Scanscope (Aperio Technologies, Vista, Calif.) and analyzed using Aperio Imagescope. The Algorithm Positive Pixel Count v9 was used to measure the Masson's trichrome staining of collagen (representing both fibrosis and collagen in extracellular matrix), hue value (0.66) and hue width (0.1) were used analyzed the tissue outlined using the pen tool. Each section was analyzed and exported. The N positive/N total value (representing the % collagen of the entire section) was used to determine a weighted average for each slide.\nHearts were obtained from AMI mice and histologically analyzed for fibrosis in Masson's trichrome stained sections in a systemic manner (FIG. 2A)."}, "[1]": {"tested_on": "pharmacologically relevant receptors", "test": "Cellular functional assays on pharmacologically relevant receptors", "format": "cell-based", "conditions": "data not shown"}, "[2]": {"tested_on": "primary cardiac fibroblasts", "test": "LDH release assay in primary cardiac fibroblasts (1% hypoxia or normoxia)", "format": "cell-based, rat", "experimental": "H9C2 is a myoblast cell line derived from rat myocardium obtained from ATCC® (CRL-1446, ATCC, Manassas, Va.) and cultured according to the recommended protocols. Briefly, cells were maintained at 37° C. with 5% CO2 in DMEM supplemented with 10% fetal bovine serum and antibiotics (100 U/ml penicillin, […] streptomycin) and split at a ratio of 1:4 using 0.05% trypsin every 36 hours. […]\nCells were rinsed in PMS and grown in DMEM (cat. #11966-025, Gibco) for 2 hours prior to initiating hypoxia (simulated ischemia). […] Three different time points were adopted for each of the three cell lines according to the severity of cell death under hypoxia determined by LDH release: for H9C2 cell line: 8 hr; 16 hr; 24 hr; for HL-1 cell line: 4 hr; 8 hr; 12 hr; […]; 32 hr; 48 hr.\nCell death was first determined using an LDH release assay (cat. #630117, Clontech), according to the manufacturer's instructions. […] Caspase 3/7 activity was next determined using a commercial Caspase 3/7 activity kit (Cat. #G8091, Promega, Madison, Wis. 53711) in a 384 well plate (Cat. #781903, Greiner bio-one) according to the manufacturer's instructions. […] The resulting cell lysates (25 μl, with 0.6 ug total protein) and Caspase-Glo 3/7 Reagent were added to each well in a 1:1 ratio and the luminescence was read (CLARIOstar, BMG LABTECH GmbH). […]"}}, "note": "No end group written: not given here."}
{"sequence": "YARAAARQARAKALARQLGVAA [MMI-0100]", "values": [{"measurement": "histology at the site of infarction (myocyte sparing within scar)", "setting": "C57BL/6 mice; AMI mice treated with MMI-0100, AMI alone generally all fibrotic", "result": "islands of viable myocytes"}, {"measurement": "fibrosis distant to the site of ischemia (histological sections)", "setting": "C57BL/6 mice; AMI mice treated with MMI-0100 vs AMI", "result": "not found to the same extent"}, {"measurement": "less fibrosis than untreated AMI mice", "setting": "C57BL/6 mice; AMI mice, 50 μg/kg/day from 30 minutes post-AMI, day 14", "result": 50, "unit": "%"}, {"measurement": "fibrosis, area staining blue (Masson's trichrome collagen)", "setting": "C57BL/6 mice; AMI mice, 50 μg/kg/day from 30 minutes post-AMI, day 14, untreated AMI ~21%", "result": "~11", "unit": "%"}, {"measurement": "effect on pharmacologically relevant receptors in cellular functional assays", "setting": "[1]", "result": "no substantial effect"}, {"measurement": "LDH release", "setting": "[2]; 16, 32, and 48 hours of hypoxia", "result": "significantly enhanced"}, {"measurement": "LDH release in normoxic conditions", "setting": "[2]; absence of hypoxia, 4 hours (so in the source)", "result": "did not enhance LDH release"}]}
